Data set [1] deals with HCV replicon in human hepatoma Huh-7 cell line. The data set can be described thus: Anti-HCV replicon assay, EC50 (luciferase luminescence). It is filed as cell-based. As to conditions: Hepatitis C virus, Huh-7, 72 h. The procedure, abridged:
(§1)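 Huh-7 cells carrying HCV replicon (6000/well) incubated with serially diluted compound, 0.5% DMSO final, 3 days at 37° C, 5% CO2. EC50 from luciferase luminescence after 30 min lysis/substrate at room temperature; CC50 from CellTiter-Glo luminescence after 10 min at room temperature.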

A short description of data set [2]: CC50 assay (CellTiter-Glo) in Huh-7 HCV replicon cells. The data set is classed as cell-based. Conditions: human. In a few lines: as §1

Bounds are passed on as bounds.

With `Cc1ccc(-c2ccc3nc(NCc4ccc(S(N)(=O)=O)cc4)nc(NC4(C(F)(F)F)CC4)c3n2)cc1S(C)(=O)=O` [Example 29, 4-{[6-(3-methanesulfonyl-4-methylphenyl)-4-(1-trifluoromethyl-cyclopropylamino)-pyrido[3,2-d]pyrimidin-2-ylamino]-methyl}-benzenesulfonamide], the EC50 in data set [1] was < 100 nM. The same compound came in with a cytotoxic concentration (CC50) at 3 days in data set [2] (Table 2, 3 days incubation) of 1000 to 10000 nM.

Turning to `Cc1nc(C)n(-c2ccc(CNc3nc(OC4(C)CC4)c4nc(-c5ccc(OC(F)F)c(S(C)(=O)=O)c5)ccc4n3)cc2)n1` [Example 205, N-(4-(3,5-dimethyl-1H-1,2,4-triazol-1-yl)benzyl)-6-(4-(difluoromethoxy)-3-(methylsulfonyl)phenyl)-4-(1-methylcyclopropoxy)pyrido [3,2-d]pyrimidin-2-amine], in data set [1], the EC50 is < 100 nM. For the same compound, the CC50 at 3 days in data set [2] (Table 2, 3 days incubation) is > 10000 nM.

Turning to `CCc1cc(S(N)(=O)=O)ccc1CNc1nc(NC2(C(F)(F)F)CC2)c2nc(-c3ccc(F)cc3)ccc2n1` [Example 68, 3-ethyl-4-((6-(4-fluorophenyl)-4-(1-(trifluoromethyl)cyclo-propylamino)pyrido[3,2-d]pyrimidin-2-ylamino)methyl) benzenesulfonamide], the EC50 in data set [1] was in the range of 250 to 2000 nM. The compound also showed a 50% cytotoxic concentration (CC50) at 3 days in data set [2] (Table 2, 3 days incubation) of 1000 to 10000 nM.

As for `NC(=O)c1ccc(CNc2nc(NC3(C(N)=O)CC3)c3nc(-c4ccc(F)cc4)ccc3n2)cn1` [Example 133, 5-((4-(1-carbamoylcyclo-propylamino)-6-(4-fluorophenyl)pyrido[3,2-d]pyrimidin-2-ylamino)methyl)picolinamide], in data set [1], the EC50 lay in the range of 100 to 250 nM. The CC50 at 3 days in data set [2] (Table 2, 3 days incubation) is > 10000 nM.

As to `C[C@@H](Nc1nc(OC2(C)CC2)c2nc(C#CC3CC3)ccc2n1)c1ccc(S(N)(=O)=O)cc1` [Example 296, (R)-4-(1-(6-(2-cyclopropyl-ethynyl)-4-(1-methylcyclo-propoxy)pyrido[3,2-d]pyrimidin-2-ylamino)ethyl)benzene-sulfonamide], the EC50 in data set [1] is < 100 nM. In addition, the CC50 at 3 days in data set [2] (Table 2, 3 days incubation) was > 10000 nM.

Take `Cc1cc(S(N)(=O)=O)ccc1C(C)Nc1nc(NCC(F)(F)F)c2nc(-c3ccc(F)cc3)ccc2n1` (centres unmarked) [Example 10, 4-{1-[6-(4-Fluoro-phenyl)-4-(2,2,2-trifluoro-ethylamino)-pyrido[3,2-d]pyrimidin-2-ylamino]-ethyl}-3-methyl-benzenesulfonamide]: the concentration for a half-maximal effect (EC50) in data set [1] fell in the range of 100 to 250 nM. Further, the CC50 at 3 days in data set [2] (Table 1, 3 days incubation) was < 10000 nM.

For the compound `CS(=O)(=O)c1cccc(-c2ccc3nc(NCc4ccc(-n5ccnc5)cc4)nc(NCC(F)(F)F)c3n2)c1` [Example 193, N^2-(4-(1H-imidazol-1-yl)benzyl)-6-(3-(methylsulfonyl)phenyl)-N^4-(2,2,2-trifluoroethyl) pyrido[3,2-d]pyrimidine-2,4-diamine], the concentration giving a half-maximal response (EC50) in data set [1] was < 100 nM. For the same compound, the CC50 at 3 days in data set [2] (Table 2, 3 days incubation) is > 10000 nM.

On to `CC#Cc1ccc2nc(N[C@H](C)c3ccc(S(N)(=O)=O)cc3)nc(OC3CCC3)c2n1` [Example 310, (R)-4-(1-(4-cyclobutoxy-6-(prop-1-ynyl)pyrido[3,2-d]pyrimidin-2-ylamino)ethyl) benzenesulfonamide], for which the EC50 in data set [1] is < 100 nM. In addition, in data set [2] (Table 2, 3 days incubation), the cytotoxic concentration (CC50) at 3 days was > 10000 nM.

Regarding `NS(=O)(=O)c1ccc(CNc2nc(NCC(F)(F)F)c3nc(-c4ccc(F)cc4)ccc3n2)cc1Cl` [Example 5, 2-Chloro-4-{[6-(4-fluoro-phenyl)-4-(2,2,2-trifluoro-ethylamino)-pyrido[-3,2-d]pyrimidin-2-ylamino]-methyl}-benzenesulfonamide], in data set [1], the 50% effective concentration (EC50) was < 100 nM. In addition, the CC50 at 3 days in data set [2] (Table 1, 3 days incubation) was > 25000 nM.

Compound `NS(=O)(=O)c1ccc(CNc2nc(NC3(C(F)(F)F)CC3)c3nc(-c4ccc(F)cc4)ccc3n2)c(Cl)c1` [Example 43, 3-chloro-4-((6-(4-fluorophenyl)-4-(1-(trifluoromethyl)cyclopropyl-amino)pyrido[3,2-d]pyrimidin-2-ylamino)methyl)benzene-sulfonamide] yielded an EC50 in data set [1] of 250 to 2000 nM. The CC50 at 3 days in data set [2] (Table 2, 3 days incubation) was > 10000 nM.

Source of the values: US8536187B2 (Gilead Sciences, Inc., priority 2008, dated 2013).
